Laboratory results: PubChem BioAssay (NCI)
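Where inhibition never reached the appropriate level, the endpoint shown equals the highest concentration tested. Otherwise, values were interpolated linearly from a five-concentration, 48-hour dose response in 96-well plates. TGI marks complete inhibition of growth.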

Columns and labels:
Assay in all cases: NCI anticancer screen, dose series, 48 h
OVCAR-5 ovarian = system: OVCAR-5 ovarian
RPMI-8226 leukemia = system: RPMI-8226 leukemia
SNB-75 CNS = system: SNB-75 CNS
U251 CNS = system: U251 CNS
SK-MEL-5 melanoma = system: SK-MEL-5 melanoma
LOX IMVI melanoma = system: LOX IMVI melanoma
786-0 renal = system: 786-0 renal
HCC-2998 colon = system: HCC-2998 colon
MDA-MB-231 breast = system: MDA-MB-231 breast
UACC-257 melanoma = system: UACC-257 melanoma
MCF7 breast = system: MCF7 breast
ACHN renal = system: ACHN renal
SF-268 CNS = system: SF-268 CNS
HOP-92 NSCLC = system: HOP-92 NSCLC
HS 578T breast = system: HS 578T breast
MDA-N = system: MDA-N
MOLT-4 leukemia = system: MOLT-4 leukemia
UACC-62 melanoma = system: UACC-62 melanoma
A549 NSCLC = system: A549 NSCLC
UO-31 renal = system: UO-31 renal
COLO 205 colon = system: COLO 205 colon
SK-MEL-2 melanoma = system: SK-MEL-2 melanoma
NCI-H460 lung = system: NCI-H460 lung
PC-3 prostate = system: PC-3 prostate
T-47D breast = system: T-47D breast
A498 renal = system: A498 renal
RXF 393 renal = system: RXF 393 renal
SNB-19 CNS = system: SNB-19 CNS
IGROV1 ovarian = system: IGROV1 ovarian
MALME-3M melanoma = system: MALME-3M melanoma
HCT-15 colon = system: HCT-15 colon
DU-145 prostate = system: DU-145 prostate
SF-295 CNS = system: SF-295 CNS
NCI/ADR-RES ovarian = system: NCI/ADR-RES ovarian
EKVX NSCLC = system: EKVX NSCLC
HL-60(TB) leukemia = system: HL-60(TB) leukemia
NCI-H522 lung = system: NCI-H522 lung
K-562 leukemia = system: K-562 leukemia
TK-10 renal = system: TK-10 renal
HOP-62 NSCLC = system: HOP-62 NSCLC
SK-MEL-28 melanoma = system: SK-MEL-28 melanoma
SW-620 colon = system: SW-620 colon
SK-OV-3 ovarian = system: SK-OV-3 ovarian
NCI-H23 lung = system: NCI-H23 lung
HT29 colon = system: HT29 colon
OVCAR-8 ovarian = system: OVCAR-8 ovarian
NCI-H226 lung = system: NCI-H226 lung
HCT-116 colon = system: HCT-116 colon
SN12C renal = system: SN12C renal
M14 melanoma = system: M14 melanoma
SR leukemia = system: SR leukemia
BT-549 breast = system: BT-549 breast
CCRF-CEM leukemia = system: CCRF-CEM leukemia
CAKI-1 renal = system: CAKI-1 renal
KM12 colon = system: KM12 colon
OVCAR-4 ovarian = system: OVCAR-4 ovarian
SF-539 CNS = system: SF-539 CNS
MDA-MB-435 = system: MDA-MB-435
OVCAR-3 ovarian = system: OVCAR-3 ovarian

Measured: TGI

CN(C)c1nc2nonc2nc1Nc1ccccc1
not listed: CAKI-1 renal | KM12 colon | OVCAR-4 ovarian | SF-539 CNS | MDA-MB-435 | OVCAR-3 ovarian
> 100 µM: all other assays above

CC1(C)OC(C(C)(C)O)C(C(C)(C)O)O1 (configuration not stated)
not listed: HOP-92 NSCLC | A498 renal | MDA-MB-435 | OVCAR-3 ovarian
> 100 µM: all other assays above

NCCC1([N+](=O)[O-])C=CN=CC1 (configuration not stated)
26.8 µM: HOP-92 NSCLC
not listed: LOX IMVI melanoma | HCC-2998 colon | MCF7 breast | HOP-62 NSCLC | OVCAR-3 ovarian
> 100 µM: all other assays above

COC(=O)[C@@H]1CCc2nc3ccccc3c(=O)n21
not listed: MCF7 breast | PC-3 prostate | RXF 393 renal | SNB-19 CNS | MALME-3M melanoma | SF-539 CNS
> 100 µM: all other assays above

N#CC1=C(N)OC2=C(CCCc3ccc([N+](=O)[O-])cc32)C1c1ccccc1 (configuration not stated)
4.19 µM: HL-60(TB) leukemia
29.7 µM: BT-549 breast
20.9 µM: UO-31 renal
14.8 µM: KM12 colon
13.8 µM: K-562 leukemia
13.9 µM: SF-295 CNS
7.45 µM: NCI/ADR-RES ovarian
23.1 µM: NCI-H460 lung
9.56 µM: SR leukemia
8.88 µM: RXF 393 renal
17.5 µM: U251 CNS
6.33 µM: OVCAR-3 ovarian
13 µM: SK-MEL-5 melanoma
10.5 µM: A498 renal
5.38 µM: MDA-N
12.2 µM: HT29 colon
23.7 µM: IGROV1 ovarian
15.2 µM: MCF7 breast
35.2 µM: EKVX NSCLC
30.5 µM: T-47D breast
45.2 µM: ACHN renal | SNB-19 CNS
24.6 µM: UACC-257 melanoma
17.4 µM: HOP-62 NSCLC
43.1 µM: OVCAR-5 ovarian
34.1 µM: SK-MEL-2 melanoma
6.41 µM: HCC-2998 colon
58.5 µM: SK-OV-3 ovarian
18.7 µM: MOLT-4 leukemia
31 µM: NCI-H226 lung
12.7 µM: SF-539 CNS
20.4 µM: SN12C renal
10.9 µM: RPMI-8226 leukemia | NCI-H522 lung
44.9 µM: HOP-92 NSCLC
26.9 µM: 786-0 renal
15.4 µM: DU-145 prostate
6.12 µM: UACC-62 melanoma
22.4 µM: SK-MEL-28 melanoma | OVCAR-8 ovarian
16.7 µM: HCT-15 colon
20.6 µM: MALME-3M melanoma
13.7 µM: COLO 205 colon
36 µM: NCI-H23 lung
44.7 µM: PC-3 prostate
21.9 µM: SF-268 CNS
16 µM: HCT-116 colon
15.7 µM: SW-620 colon
12.4 µM: M14 melanoma
49.1 µM: TK-10 renal
19.6 µM: LOX IMVI melanoma
not listed: CCRF-CEM leukemia | MDA-MB-435
> 100 µM: all other assays above
